Each structure is given as a SMILES string. Where “and” joins values, the source holds several entries; their conditions need not be identical. Equal values may be shown once.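 96-well plates; 48 h exposure; 5 concentrations. Endpoints by linear interpolation between flanking doses. Not reached: highest tested concentration assigned. At the GI50, growth is halved. At the TGI there is no net growth.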

The values below come from PubChem BioAssay (NCI).

Among the test systems are SNB-75 CNS; MDA-MB-435; SNB-19 CNS; HCC-2998 colon; SF-539 CNS; CAKI-1 renal; IGROV1 ovarian; NCI-H226 lung; U251 CNS; SK-MEL-5 melanoma.
Holding throughout (assay): DTP human tumour cell line panel, 48 h

Regarding `CC(C)N(Cc1ccc(CN(C(=O)CCl)C(C)C)cc1)C(=O)CCl`, the GI50 in the test on SNB-75 CNS was 1290 nM; with MDA-MB-435, 1700 nM; in the test with SNB-19 CNS, 2160 nM; in the test on HCC-2998 colon, 2000 nM; in the test on SF-539 CNS it was 1670 nM; in the test on CAKI-1 renal, 1770 nM. For the same compound, the GI50 is 629 nM with IGROV1 ovarian, 3250 nM in the test on NCI-H226 lung, 1770 nM in the test on U251 CNS and 451 nM in the test with SK-MEL-5 melanoma. For the same compound, the TGI amounted to 2590 nM with SNB-75 CNS; 4900 nM with MDA-MB-435; 5400 nM in the test with SNB-19 CNS; 3940 nM in the test on HCC-2998 colon; 3250 nM in the test on SF-539 CNS; 3390 nM in the test on CAKI-1 renal. For the same compound, the TGI was 2550 nM in the test with IGROV1 ovarian, 9440 nM in the test with NCI-H226 lung, 3320 nM in the test on U251 CNS and 1810 nM in the test on SK-MEL-5 melanoma.

As for `COc1cc(C2C3=C(COC3=O)N(CCO)c3cc4c(cc32)OCCO4)cc(OC)c1OC` (stereo not given), the GI50 was 183 nM with SNB-75 CNS; 103 nM in the test on MDA-MB-435; 717 nM with SNB-19 CNS; 127 nM with HCC-2998 colon; 147 nM with SF-539 CNS; 2110 nM with CAKI-1 renal. Further, the concentration for 50% growth inhibition (GI50) was 165 nM in the test with IGROV1 ovarian, 4480 nM in the test on NCI-H226 lung, 226 nM in the test with U251 CNS and 179 nM in the test on SK-MEL-5 melanoma. For the same compound, the TGI in the test on SNB-75 CNS was more than 50000 nM; in the test on MDA-MB-435 it was 256 nM; with SNB-19 CNS it was more than 50000 nM; in the test with HCC-2998 colon, 335 nM; in the test on CAKI-1 renal it was more than 50000 nM; in the test on IGROV1 ovarian, 898 nM. Further, the results for the TGI with NCI-H226 lung, in the test with U251 CNS and with SK-MEL-5 melanoma were more than 50000 nM, more than 50000 nM and 916 nM, respectively.

In the case of `CN(C)CCCn1c(=O)c2ccccc2c2cnc3[nH]ccc3c21`, the GI50 was 1170 nM with SNB-75 CNS; 1760 nM in the test with MDA-MB-435; 2190 nM in the test on SNB-19 CNS; 2030 nM in the test with HCC-2998 colon; 2340 nM with SF-539 CNS; 1940 nM with CAKI-1 renal. Further, the GI50 in the test on IGROV1 ovarian was 2280 nM; in the test with NCI-H226 lung it was 862 nM; in the test with U251 CNS, 2120 nM; with SK-MEL-5 melanoma, 1770 nM. The TGI amounted to 3600 nM with SNB-75 CNS; 6660 nM in the test with MDA-MB-435; 10600 nM in the test on SNB-19 CNS; 7720 nM with HCC-2998 colon; 7040 nM in the test on SF-539 CNS; 4660 nM in the test with CAKI-1 renal. Also, the concentration for total growth inhibition (TGI) with IGROV1 ovarian turned out to be 11700 nM; in the test with NCI-H226 lung, 2580 nM; in the test on U251 CNS, 7210 nM; in the test with SK-MEL-5 melanoma it was 3510 nM.

In the case of `CN(C)CC1CC/C(=C\c2ccc3c(c2)OCO3)C1=O` (stereo not given), the TGI came out at 28500 nM with SNB-75 CNS; 4430 nM in the test with MDA-MB-435; 36000 nM in the test on SNB-19 CNS; 50700 nM with HCC-2998 colon; 31000 nM in the test with SF-539 CNS; 23100 nM in the test on CAKI-1 renal. Moreover, the concentration for total growth inhibition (TGI) with IGROV1 ovarian stood at 26900 nM; with NCI-H226 lung, 50600 nM; with U251 CNS it was 36100 nM; in the test on SK-MEL-5 melanoma, 28000 nM.

Turning to `CCN(CC)CCCC(C)Nc1cc(-c2cccc(OC(F)(F)F)c2)nc2ccc(N3CCCC3)cc12` (stereo not given), the GI50 in the test with SNB-75 CNS was 36.1 nM; in the test with MDA-MB-435, 22.3 nM; with SNB-19 CNS it was 118 nM; with HCC-2998 colon, 224 nM; with SF-539 CNS, 38.2 nM; with CAKI-1 renal it was 42.2 nM. The GI50 was 94.1 nM in the test with IGROV1 ovarian, 189 nM in the test on NCI-H226 lung, 47.3 nM with U251 CNS and 126 nM in the test with SK-MEL-5 melanoma. The TGI in the test on SNB-75 CNS was 59400 nM; with MDA-MB-435, 51.9 nM; in the test with SNB-19 CNS, more than 100000 nM; with HCC-2998 colon it was 2980 nM; with SF-539 CNS, 508 nM; with CAKI-1 renal, 31500 nM. Moreover, the TGI is more than 100000 nM in the test with IGROV1 ovarian, 9570 nM with NCI-H226 lung, 21900 nM with U251 CNS and 589 nM with SK-MEL-5 melanoma.

Consider `O=C(NCC(F)(F)F)Nc1cccc(-c2cnc3cc(-c4ccc(F)cc4)ccn23)c1`, for which the GI50 in the test with SNB-75 CNS was 240 nM; in the test with MDA-MB-435, 216 nM; in the test with SNB-19 CNS, 2260 nM; in the test on HCC-2998 colon, 1950 nM; in the test with SF-539 CNS, 522 nM; with CAKI-1 renal, 1050 nM. Besides, the GI50 in the test on IGROV1 ovarian is 673 nM; in the test with NCI-H226 lung, 3990 nM; in the test with U251 CNS, 622 nM; in the test with SK-MEL-5 melanoma it was 549 nM. Also, the TGI in the test with SNB-75 CNS is 2090 nM; in the test on MDA-MB-435, 983 nM; in the test on SNB-19 CNS, more than 100000 nM; in the test with HCC-2998 colon it was 49400 nM; in the test with SF-539 CNS it was 3500 nM; in the test with IGROV1 ovarian it was 7750 nM. The TGI with NCI-H226 lung is more than 100000 nM; in the test on U251 CNS, 20800 nM; in the test with SK-MEL-5 melanoma, 14000 nM.

For the compound `CCCCCC(O)C(O)CCC[C@H](O)[C@H]1CC[C@H]([C@H]2CC[C@H]([C@H](O)CCCCCCCCCCCCC3=C[C@H](C)OC3=O)O2)O1` (stereo not given in full), the GI50 is 15200 nM in the test on SNB-75 CNS; 6840 nM in the test on MDA-MB-435; 4610 nM with SNB-19 CNS; 12100 nM in the test with SF-539 CNS; 15300 nM in the test on CAKI-1 renal; 7460 nM in the test with IGROV1 ovarian. Also, the GI50 in the test on NCI-H226 lung is 5250 nM; in the test with U251 CNS, 8470 nM. Besides, the concentration for total growth inhibition (TGI) is 37900 nM in the test on SNB-75 CNS; 21400 nM in the test on SNB-19 CNS; 41300 nM in the test on HCC-2998 colon; 37000 nM in the test with SF-539 CNS; 36500 nM in the test with CAKI-1 renal; 29400 nM in the test with IGROV1 ovarian. In addition, the total growth inhibition concentration (TGI) is 35900 nM in the test on NCI-H226 lung; more than 100000 nM with U251 CNS; 3820 nM and 3070 nM with SK-MEL-5 melanoma.

One may read the GI50 as the concentration that inhibits growth by half. Usually TGI stands for the concentration giving total growth inhibition.
